Experimental data published in article PMC6002473, “An Evolutionarily Conserved Structural Platform for PRC2 Inhibition by a Class of Ezh2 Inhibitors” (Scientific Reports, 2018).

Target: T1, ctEzh2 (ctPRC2) (Thermochaetoides thermophila, UniProt G0SDW4)
T1 construct: gene EZH2; Fusion of Ezh2 (residues 191–950) and the VEFS domain of Suz12 (residues 530–691), and full length Eed (residues 1–565); with Eed, Suz12(VEFS)
T1 sequence (G0SDW4 191-950): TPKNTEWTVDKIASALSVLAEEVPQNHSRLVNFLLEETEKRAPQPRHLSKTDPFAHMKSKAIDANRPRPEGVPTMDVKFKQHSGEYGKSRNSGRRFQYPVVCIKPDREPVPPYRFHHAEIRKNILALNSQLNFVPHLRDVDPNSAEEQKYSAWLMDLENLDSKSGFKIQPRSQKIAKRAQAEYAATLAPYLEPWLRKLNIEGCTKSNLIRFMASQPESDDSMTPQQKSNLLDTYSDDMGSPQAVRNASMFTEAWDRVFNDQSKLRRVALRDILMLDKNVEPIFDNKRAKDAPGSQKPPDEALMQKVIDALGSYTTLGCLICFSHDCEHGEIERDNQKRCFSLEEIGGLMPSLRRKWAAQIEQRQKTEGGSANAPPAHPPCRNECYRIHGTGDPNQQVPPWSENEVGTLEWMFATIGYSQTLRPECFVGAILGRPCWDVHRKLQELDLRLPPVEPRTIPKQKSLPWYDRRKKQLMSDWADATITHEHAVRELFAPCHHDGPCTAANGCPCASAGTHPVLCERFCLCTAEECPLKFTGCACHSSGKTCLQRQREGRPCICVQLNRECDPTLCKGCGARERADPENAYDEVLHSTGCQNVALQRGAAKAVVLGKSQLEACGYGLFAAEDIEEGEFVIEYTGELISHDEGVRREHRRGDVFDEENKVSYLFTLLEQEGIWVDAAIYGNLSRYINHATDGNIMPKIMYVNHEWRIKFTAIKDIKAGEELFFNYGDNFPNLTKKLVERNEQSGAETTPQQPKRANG
T1 sequence (G0S8H7 1-565 partner): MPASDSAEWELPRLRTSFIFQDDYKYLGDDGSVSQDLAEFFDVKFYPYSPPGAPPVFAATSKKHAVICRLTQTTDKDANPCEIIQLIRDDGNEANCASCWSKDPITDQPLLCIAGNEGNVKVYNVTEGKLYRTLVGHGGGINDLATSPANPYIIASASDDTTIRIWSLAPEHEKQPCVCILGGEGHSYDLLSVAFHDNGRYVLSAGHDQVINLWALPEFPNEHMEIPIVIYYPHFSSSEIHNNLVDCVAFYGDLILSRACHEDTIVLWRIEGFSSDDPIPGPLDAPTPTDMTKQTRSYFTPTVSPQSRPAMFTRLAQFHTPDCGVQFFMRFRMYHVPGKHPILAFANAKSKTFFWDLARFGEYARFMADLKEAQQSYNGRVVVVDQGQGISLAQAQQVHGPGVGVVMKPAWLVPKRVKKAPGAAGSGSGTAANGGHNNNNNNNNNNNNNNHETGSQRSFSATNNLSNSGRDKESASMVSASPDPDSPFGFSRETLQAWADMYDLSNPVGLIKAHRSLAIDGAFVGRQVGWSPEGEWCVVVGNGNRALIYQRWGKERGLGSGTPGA
T1 sequence (G0RYC6 530-691 partner): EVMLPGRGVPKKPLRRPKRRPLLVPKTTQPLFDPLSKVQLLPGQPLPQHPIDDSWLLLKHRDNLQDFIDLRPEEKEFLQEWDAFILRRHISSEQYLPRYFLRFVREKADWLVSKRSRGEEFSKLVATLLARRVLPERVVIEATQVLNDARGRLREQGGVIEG
Experiment: co-crystal structure ([…] Å, soaked); radiometric methyltransferase IC50
Type: biochemical

How did the IC50 turn out when `CC[C@H](C)n1cc(C)c2c(C(=O)NCc3c(C)cc(C)[nH]c3=O)cc(-c3ccc(N4CCNCC4)nc3)cc21` [GSK126] was run?
The IC50 was ~100 µM.
